Square brackets hold non-standard residues; d marks the D form. Ends that are not written are not given here. Peptide text beside a SMILES is read from it. Nle = CCCC[C@H](N)C(=O)O

The experiment has as its system cells of rat pituitary glands. Kind of experiment: in vitro release of growth hormone from cultured rat pituitary cells, GH measured by radioimmunoassay. Type of experiment: cell-based. The following applies: potency for GH release relative to standard hGRF(1-40)-OH = 1.0; equimolar concentrations; 3 to 4 hours incubation; range in parentheses. Here is the method:
To determine the relative effectiveness of synthetic peptides to promote the release of growth hormone, in vitro assays are carried out using synthetic hpGRF(1-40)-OH as a standard in side-by-side comparison with equimolar concentrations of the representative analogs which have been synthesized. Cultures are used which include cells of rat pituitary glands removed some three to five days previously. Such cultures are considered optimal for the secretion of growth hormone and are used for the comparative testing, in the general manner described in Vale et al. Endocrinology, 91, 562-572 (1972) and as more particularly described in Vale et al. Endocrinology, 112, 1553-1555 (1983). Incubation with the substance to be tested is carried out for 3 to 4 hours, and aliquots of the culture medium are removed and processed to measure their contents in immunoreactive GH(ir GH) by a well-characterized radioimmunoassay.

Turning to `CCCC[C@H](NC(=O)[C@@H](NC(=O)[C@H](CC(=O)O)NC(=O)[C@H](CCC(N)=O)NC(=O)[C@H](CC(C)C)NC(=O)[C@H](CC(C)C)NC(=O)[C@H](CCCCN)NC(=O)[C@H](CCCNC(=N)N)NC(=O)[C@H](C)NC(=O)[C@H](CO)NC(=O)[C@H](CC(C)C)NC(=O)[C@H](CCC(N)=O)NC(=O)CNC(=O)[C@H](CC(C)C)NC(=O)[C@@H](NC(=O)[C@H](CCCCN)NC(=O)[C@H](CCCNC(=N)N)NC(=O)[C@H](Cc1ccc(O)cc1)NC(=O)[C@H](CO)NC(=O)[C@H](C)NC(=O)[C@@H](NC(=O)[C@H](Cc1ccccc1)NC(=O)[C@@H](NC(=O)[C@H](C)NC(=O)[C@H](CC(=O)O)NC(=O)[C@H](C)NC(=O)[C@@H](N)Cc1ccc(O)cc1)[C@@H](C)CC)[C@@H](C)O)C(C)C)[C@@H](C)CC)C(=O)N[C@@H](CO)C(=O)N[C@@H](CCCNC(=N)N)C(N)=O` [Example No. 1, [Ala^8, Nle^27]-hGRF(1-29)-NH2] (H-YADAIFTASYRKVLGQLSARKLLQDI[Nle]SR-NH2), the “In Vitro Potencies” value is recorded as 2.143(1.178-4.065). Under `CCCC[C@H](NC(=O)[C@@H](NC(=O)[C@H](CC(=O)O)NC(=O)[C@H](C)NC(=O)[C@H](CC(C)C)NC(=O)[C@H](CC(C)C)NC(=O)[C@H](CCCCN)NC(=O)[C@H](CCCNC(=N)N)NC(=O)[C@H](C)NC(=O)[C@H](CO)NC(=O)[C@H](CC(C)C)NC(=O)[C@H](CCC(N)=O)NC(=O)CNC(=O)[C@H](CC(C)C)NC(=O)[C@@H](NC(=O)[C@H](CCCCN)NC(=O)[C@H](CCCNC(=N)N)NC(=O)[C@H](Cc1ccc(O)cc1)NC(=O)[C@H](CO)NC(=O)[C@H](CC(N)=O)NC(=O)[C@@H](NC(=O)[C@H](Cc1ccccc1)NC(=O)[C@@H](NC(=O)[C@H](C)NC(=O)[C@H](CC(=O)O)NC(=O)[C@H](C)NC(=O)[C@@H](N)Cc1ccc(O)cc1)[C@@H](C)CC)[C@@H](C)O)C(C)C)[C@@H](C)CC)C(=O)N[C@@H](CO)C(=O)N[C@@H](CCCNC(=N)N)C(N)=O` [Example No. 3, [Ala^24, Nle^27]-hGRF(1-29)-NH2] (H-YADAIFTNSYRKVLGQLSARKLLADI[Nle]SR-NH2) stands 1.345(0.595-2.068); under `CCCC[C@H](NC(=O)[C@@H](NC(=O)[C@H](C)NC(=O)[C@H](CCC(N)=O)NC(=O)[C@H](CC(C)C)NC(=O)[C@H](CC(C)C)NC(=O)[C@H](CCCCN)NC(=O)[C@H](CCCNC(=N)N)NC(=O)[C@H](C)NC(=O)[C@H](CO)NC(=O)[C@H](CC(C)C)NC(=O)[C@H](CCC(N)=O)NC(=O)CNC(=O)[C@H](CC(C)C)NC(=O)[C@@H](NC(=O)[C@H](CCCCN)NC(=O)[C@H](CCCNC(=N)N)NC(=O)[C@H](Cc1ccc(O)cc1)NC(=O)[C@H](CO)NC(=O)[C@H](CC(N)=O)NC(=O)[C@@H](NC(=O)[C@H](Cc1ccccc1)NC(=O)[C@@H](NC(=O)[C@H](C)NC(=O)[C@H](CC(=O)O)NC(=O)[C@H](C)NC(=O)[C@@H](N)Cc1ccc(O)cc1)[C@@H](C)CC)[C@@H](C)O)C(C)C)[C@@H](C)CC)C(=O)N[C@@H](CO)C(=O)N[C@@H](CCCNC(=N)N)C(N)=O` [Example No. 4, [Ala^25, Nle^27]-hGRF(1-29)-NH2] (H-YADAIFTNSYRKVLGQLSARKLLQAI[Nle]SR-NH2), 1.34(0.837-2.190).

Take `CC[C@H](C)[C@H](NC(=O)[C@H](C)NC(=O)[C@H](CC(=O)O)NC(=O)[C@H](C)NC(=O)[C@@H](N)Cc1ccc(O)cc1)C(=O)N[C@@H](Cc1ccccc1)C(=O)N[C@H](C(=O)N[C@@H](CC(N)=O)C(=O)N[C@@H](CO)C(=O)N[C@@H](Cc1ccc(O)cc1)C(=O)N[C@@H](CCCNC(=N)N)C(=O)N[C@@H](CCCCN)C(=O)N[C@H](C(=O)N[C@@H](CC(C)C)C(=O)NCC(=O)N[C@@H](CCC(N)=O)C(=O)N[C@@H](CC(C)C)C(=O)N[C@@H](CO)C(=O)N[C@@H](C)C(=O)N[C@@H](CCCNC(=N)N)C(=O)N[C@@H](CCCCN)C(=O)N[C@@H](CC(C)C)C(=O)N[C@@H](CC(C)C)C(=O)N[C@@H](CCC(N)=O)C(=O)N[C@@H](CC(=O)O)C(=O)N[C@H](C(=O)N[C@@H](CCSC)C(=O)N[C@@H](CO)C(=O)N[C@@H](CCCNC(=N)N)C(=O)N[C@@H](CCC(N)=O)C(=O)N[C@@H](CCC(N)=O)C(=O)NCC(=O)N[C@@H](CCC(=O)O)C(=O)N[C@@H](CO)C(=O)N[C@@H](CC(N)=O)C(=O)N[C@@H](CCC(N)=O)C(=O)N[C@@H](CCC(=O)O)C(=O)N[C@@H](CCCNC(=N)N)C(=O)NCC(=O)N[C@@H](C)C(=O)O)[C@@H](C)CC)C(C)C)[C@@H](C)O` [hGRF(1-40)-OH, reference compound]: the “In Vitro Potencies” value is reported as 1.0.

On to “[Ala^16, Nle^27 ]-hGRF(1-29)-NH2 (YADAIFTNSYRKVLGALSARKLLQDI[Nle]SR-NH2; N-terminus assumed; SMILES CCCC[C@H](NC(=O)[C@@H](NC(=O)[C@H](CC(=O)O)NC(=O)[C@H](CCC(N)=O)NC(=O)[C@H](CC(C)C)NC(=O)[C@H](CC(C)C)NC(=O)[C@H](CCCCN)NC(=O)[C@H](CCCNC(=N)N)NC(=O)[C@H](C)NC(=O)[C@H](CO)NC(=O)[C@H](CC(C)C)NC(=O)[C@H](C)NC(=O)CNC(=O)[C@H](CC(C)C)NC(=O)[C@@H](NC(=O)[C@H](CCCCN)NC(=O)[C@H](CCCNC(=N)N)NC(=O)[C@H](Cc1ccc(O)cc1)NC(=O)[C@H](CO)NC(=O)[C@H](CC(N)=O)NC(=O)[C@@H](NC(=O)[C@H](Cc1ccccc1)NC(=O)[C@@H](NC(=O)[C@H](C)NC(=O)[C@H](CC(=O)O)NC(=O)[C@H](C)NC(=O)[C@@H](N)Cc1ccc(O)cc1)[C@@H](C)CC)[C@@H](C)O)C(C)C)[C@@H](C)CC)C(=O)N[C@@H](CO)C(=O)N[C@@H](CCCNC(=N)N)C(N)=O) [Example No. 2]”, for which the “In Vitro Potencies” value is reported as 1.502(0.727-2.859).

Source of the values: patent US5262519A, “GRF analogs XI” (The Salk Institute for Biological Studies, priority 1991, dated 1993).
